Reference: publication PMC8371461 (Frontiers in Pharmacology, 2021)

Columns and labels:
Assay type in all cases: binding
[1] = biological target: T1, ABL1(M351T)-phosphorylated (Homo sapiens, UniProt P00519, M351T); assay: kinome scan; conditions: 10 µM
T1 construct: purchased DiscoverX (KINOMEscan)

CDC2L2 = biological target: T2, CDC2L2 (Homo sapiens, UniProt Q9UQ88); assay: kinome scan; conditions: 10 µM
T2 construct: purchased DiscoverX (KINOMEscan)

CLK1 = biological target: T3, CLK1 (Homo sapiens, UniProt P49759); assay: kinome scan; conditions: 10 µM
T3 construct: purchased DiscoverX (KINOMEscan)

CLK3 = biological target: T4, CLK3 (Homo sapiens, UniProt P49761); assay: kinome scan; conditions: 10 µM
T4 construct: purchased DiscoverX (KINOMEscan)

EGFR(T790M) = biological target: T5, EGFR(T790M) (Homo sapiens, UniProt P00533, T790M); assay: kinome scan; conditions: 10 µM
T5 construct: purchased DiscoverX (KINOMEscan)

EPHB6 = biological target: T6, EPHB6 (Homo sapiens, UniProt O15197); assay: kinome scan; conditions: 10 µM
T6 construct: purchased DiscoverX (KINOMEscan)

ERK5 = biological target: T7, ERK5 (Homo sapiens, UniProt Q13164); assay: kinome scan; conditions: 10 µM
T7 construct: purchased DiscoverX (KINOMEscan)

FLT3(N841I) = biological target: T8, FLT3(N841I) (Homo sapiens, UniProt P36888, N841I); assay: kinome scan; conditions: 10 µM
T8 construct: purchased DiscoverX (KINOMEscan)

ICK = biological target: T9, ICK (Homo sapiens, UniProt Q9UPZ9); assay: kinome scan; conditions: 10 µM
T9 construct: purchased DiscoverX (KINOMEscan)

IRAK1 = biological target: T10, IRAK1 (Homo sapiens, UniProt P51617); assay: kinome scan; conditions: 10 µM
T10 construct: purchased DiscoverX (KINOMEscan)

IRAK4 = biological target: T11, IRAK4 (Homo sapiens, UniProt Q9NWZ3); assay: kinome scan; conditions: 10 µM
T11 construct: purchased DiscoverX (KINOMEscan)

ITK = biological target: T12, ITK (Homo sapiens, UniProt Q08881); assay: kinome scan; conditions: 10 µM
T12 construct: purchased DiscoverX (KINOMEscan)

LATS1 = biological target: T13, LATS1 (Homo sapiens, UniProt O95835); assay: kinome scan; conditions: 10 µM
T13 construct: purchased DiscoverX (KINOMEscan)

MARK1 = biological target: T14, MARK1 (Homo sapiens, UniProt Q9P0L2); assay: kinome scan; conditions: 10 µM
T14 construct: purchased DiscoverX (KINOMEscan)

MARK2 = biological target: T15, MARK2 (Homo sapiens, UniProt Q7KZI7); assay: kinome scan; conditions: 10 µM
T15 construct: purchased DiscoverX (KINOMEscan)

MET(Y1235D) = biological target: T16, MET(Y1235D) (Homo sapiens, UniProt P08581, Y1235D); assay: kinome scan; conditions: 10 µM
T16 construct: purchased DiscoverX (KINOMEscan)

MYLK = biological target: T17, MYLK (Homo sapiens, UniProt Q15746); assay: kinome scan; conditions: 10 µM
T17 construct: purchased DiscoverX (KINOMEscan)

MYLK2 = biological target: T18, MYLK2 (Homo sapiens, UniProt Q9H1R3); assay: kinome scan; conditions: 10 µM
T18 construct: purchased DiscoverX (KINOMEscan)

PAK7 = biological target: T19, PAK7 (Homo sapiens, UniProt Q9P286); assay: kinome scan; conditions: 10 µM
T19 construct: purchased DiscoverX (KINOMEscan)

PFTAIRE2 = biological target: T20, PFTAIRE2 (Homo sapiens, UniProt Q96Q40); assay: kinome scan; conditions: 10 µM
T20 construct: purchased DiscoverX (KINOMEscan)

PIK3CA(E545K) = biological target: T21, PIK3CA(E545K) (Homo sapiens, UniProt P42336, E545K); assay: kinome scan; conditions: 10 µM
T21 construct: purchased DiscoverX (KINOMEscan)

[2] = biological target: T22, RSK4(Kin.Dom.2-C-terminal) (Homo sapiens, UniProt Q9UK32); assay: kinome scan; conditions: 10 µM
T22 construct: RSK4(Kin.Dom.2-C-terminal); purchased DiscoverX (KINOMEscan)

SRPK3 = biological target: T23, SRPK3 (Homo sapiens, UniProt Q9UPE1); assay: kinome scan; conditions: 10 µM
T23 construct: purchased DiscoverX (KINOMEscan)

TAOK3 = biological target: T24, TAOK3 (Homo sapiens, UniProt Q9H2K8); assay: kinome scan; conditions: 10 µM
T24 construct: purchased DiscoverX (KINOMEscan)

TIE2 = biological target: T25, TIE2 (Homo sapiens, UniProt Q02763); assay: kinome scan; conditions: 10 µM
T25 construct: purchased DiscoverX (KINOMEscan)

YANK2 = biological target: T26, YANK2 (Homo sapiens, UniProt Q9NY57); assay: kinome scan; conditions: 10 µM
T26 construct: purchased DiscoverX (KINOMEscan)

RIOK2 = biological target: T27, RIOK2 (Homo sapiens, UniProt Q9BVS4); assay: Kd select analysis (DiscoverX)
T27 construct: T7 phage fusion (kinase-tagged phage); purchased DiscoverX; host or cells: BL21-derived E. coli (T7 phage)
Method: Hits are identified by an ultra-sensitive quantitative PCR detecting the specific DNA tag linked to each kinase (Supplementary Figure S2). The drug is used at a concentration of 10 µM and results are expressed as the percentage of signal (kinase PCR detection) with respect to DMSO control conditions. Thirteen hits were identified, with a signal reduction ranging from 0 to 27% (Table 3). Full raw data are presented in Supplementary Table S4. Interactions between 0 and 20% of reduction were considered to be the most significant ones. […] A sub-micromolar affinity (Kd<1 µM) was only seen with two PIKs (PIP4K2C, PI4KB) and GAK (Table 4). Inhibitions curves from these compounds are shown in Supplementary Figure S3.

T17 sequence (Q15746 whole entry): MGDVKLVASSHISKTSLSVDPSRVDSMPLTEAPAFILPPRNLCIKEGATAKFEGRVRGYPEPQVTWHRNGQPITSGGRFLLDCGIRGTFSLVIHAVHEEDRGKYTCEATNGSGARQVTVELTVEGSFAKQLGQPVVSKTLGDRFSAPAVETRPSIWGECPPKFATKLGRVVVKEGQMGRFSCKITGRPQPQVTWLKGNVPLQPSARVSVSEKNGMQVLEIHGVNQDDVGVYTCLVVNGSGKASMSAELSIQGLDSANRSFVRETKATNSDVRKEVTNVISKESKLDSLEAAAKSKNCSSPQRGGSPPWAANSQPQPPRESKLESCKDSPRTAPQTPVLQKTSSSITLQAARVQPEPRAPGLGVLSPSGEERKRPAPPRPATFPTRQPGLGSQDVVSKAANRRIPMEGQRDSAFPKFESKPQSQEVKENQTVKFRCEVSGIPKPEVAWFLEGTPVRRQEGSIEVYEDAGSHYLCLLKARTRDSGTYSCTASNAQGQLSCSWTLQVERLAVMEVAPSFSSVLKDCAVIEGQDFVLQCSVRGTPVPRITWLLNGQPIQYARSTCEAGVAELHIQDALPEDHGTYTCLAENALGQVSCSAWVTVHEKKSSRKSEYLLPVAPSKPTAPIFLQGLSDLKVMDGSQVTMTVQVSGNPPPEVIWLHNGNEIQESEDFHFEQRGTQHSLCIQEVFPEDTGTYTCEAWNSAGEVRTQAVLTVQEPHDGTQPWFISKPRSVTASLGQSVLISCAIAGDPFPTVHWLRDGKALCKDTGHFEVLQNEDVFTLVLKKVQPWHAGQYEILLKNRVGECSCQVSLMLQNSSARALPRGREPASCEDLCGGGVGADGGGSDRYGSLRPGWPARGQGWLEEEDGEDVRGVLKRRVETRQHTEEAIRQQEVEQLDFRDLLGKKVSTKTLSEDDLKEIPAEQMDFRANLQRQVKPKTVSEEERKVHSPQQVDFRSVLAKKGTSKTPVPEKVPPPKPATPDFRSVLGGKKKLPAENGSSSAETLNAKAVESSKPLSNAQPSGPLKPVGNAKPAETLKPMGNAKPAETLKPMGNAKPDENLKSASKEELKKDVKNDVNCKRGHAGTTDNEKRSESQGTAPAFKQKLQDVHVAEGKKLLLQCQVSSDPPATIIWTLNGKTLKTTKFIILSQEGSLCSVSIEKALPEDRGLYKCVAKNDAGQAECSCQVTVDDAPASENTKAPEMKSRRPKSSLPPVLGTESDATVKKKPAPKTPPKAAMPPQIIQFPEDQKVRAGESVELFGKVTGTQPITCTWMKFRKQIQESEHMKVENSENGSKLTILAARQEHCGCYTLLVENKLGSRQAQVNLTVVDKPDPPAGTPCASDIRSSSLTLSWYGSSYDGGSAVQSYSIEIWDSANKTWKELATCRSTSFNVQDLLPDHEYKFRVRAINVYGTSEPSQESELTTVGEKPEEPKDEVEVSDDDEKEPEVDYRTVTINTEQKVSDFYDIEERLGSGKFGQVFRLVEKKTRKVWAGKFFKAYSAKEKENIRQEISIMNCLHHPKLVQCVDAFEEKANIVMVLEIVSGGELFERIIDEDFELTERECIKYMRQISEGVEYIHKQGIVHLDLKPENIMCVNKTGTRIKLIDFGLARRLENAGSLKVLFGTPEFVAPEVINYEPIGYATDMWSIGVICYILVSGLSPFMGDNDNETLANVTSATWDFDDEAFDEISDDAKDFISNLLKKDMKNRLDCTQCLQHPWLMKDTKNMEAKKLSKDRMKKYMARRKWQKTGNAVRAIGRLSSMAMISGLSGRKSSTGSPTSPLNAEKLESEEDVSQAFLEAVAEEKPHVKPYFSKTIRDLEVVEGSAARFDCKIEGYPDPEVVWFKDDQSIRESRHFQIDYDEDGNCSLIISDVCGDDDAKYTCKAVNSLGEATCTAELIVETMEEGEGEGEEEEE
T22 sequence (Q9UK32 426-683 limits assumed): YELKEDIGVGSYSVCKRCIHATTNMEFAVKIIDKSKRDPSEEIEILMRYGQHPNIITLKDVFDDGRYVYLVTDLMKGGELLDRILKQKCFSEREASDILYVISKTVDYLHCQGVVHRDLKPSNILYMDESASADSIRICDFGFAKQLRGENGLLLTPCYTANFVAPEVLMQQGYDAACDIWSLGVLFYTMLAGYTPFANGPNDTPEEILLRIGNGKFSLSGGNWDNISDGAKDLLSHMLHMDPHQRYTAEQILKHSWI
T14 sequence (Q9P0L2 whole entry): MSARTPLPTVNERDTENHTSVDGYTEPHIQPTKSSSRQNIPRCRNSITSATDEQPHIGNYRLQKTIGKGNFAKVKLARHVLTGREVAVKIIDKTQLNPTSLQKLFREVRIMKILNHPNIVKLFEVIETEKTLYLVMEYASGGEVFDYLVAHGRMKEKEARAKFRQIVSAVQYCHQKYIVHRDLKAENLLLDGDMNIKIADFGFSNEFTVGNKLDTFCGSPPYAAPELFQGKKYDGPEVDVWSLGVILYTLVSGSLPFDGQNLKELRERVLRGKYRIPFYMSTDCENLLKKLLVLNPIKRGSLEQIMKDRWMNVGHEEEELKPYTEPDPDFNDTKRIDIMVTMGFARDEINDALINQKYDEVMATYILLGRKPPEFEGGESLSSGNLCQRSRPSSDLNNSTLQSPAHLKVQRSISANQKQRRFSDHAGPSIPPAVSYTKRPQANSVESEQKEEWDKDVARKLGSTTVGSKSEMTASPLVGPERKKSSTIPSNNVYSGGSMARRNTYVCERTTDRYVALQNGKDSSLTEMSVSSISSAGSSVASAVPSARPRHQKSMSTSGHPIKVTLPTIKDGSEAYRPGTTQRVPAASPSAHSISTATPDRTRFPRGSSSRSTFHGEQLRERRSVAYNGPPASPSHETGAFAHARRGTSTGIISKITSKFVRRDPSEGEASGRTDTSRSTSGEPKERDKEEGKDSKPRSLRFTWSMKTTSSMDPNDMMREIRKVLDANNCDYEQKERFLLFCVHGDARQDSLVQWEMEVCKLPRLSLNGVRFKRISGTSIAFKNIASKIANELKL
T26 sequence (Q9NY57 whole entry): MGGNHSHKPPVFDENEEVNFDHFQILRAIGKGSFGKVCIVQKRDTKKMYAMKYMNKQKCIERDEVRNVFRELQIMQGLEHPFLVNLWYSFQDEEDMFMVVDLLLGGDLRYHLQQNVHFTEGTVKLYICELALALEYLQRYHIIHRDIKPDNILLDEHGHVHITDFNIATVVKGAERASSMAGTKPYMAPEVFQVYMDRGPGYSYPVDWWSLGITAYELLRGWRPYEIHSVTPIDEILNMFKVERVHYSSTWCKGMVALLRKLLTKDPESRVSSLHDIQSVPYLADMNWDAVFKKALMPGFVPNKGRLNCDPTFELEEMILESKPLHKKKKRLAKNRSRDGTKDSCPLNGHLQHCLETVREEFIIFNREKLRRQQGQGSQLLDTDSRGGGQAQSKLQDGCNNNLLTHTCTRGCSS
T11 sequence (Q9NWZ3 whole entry): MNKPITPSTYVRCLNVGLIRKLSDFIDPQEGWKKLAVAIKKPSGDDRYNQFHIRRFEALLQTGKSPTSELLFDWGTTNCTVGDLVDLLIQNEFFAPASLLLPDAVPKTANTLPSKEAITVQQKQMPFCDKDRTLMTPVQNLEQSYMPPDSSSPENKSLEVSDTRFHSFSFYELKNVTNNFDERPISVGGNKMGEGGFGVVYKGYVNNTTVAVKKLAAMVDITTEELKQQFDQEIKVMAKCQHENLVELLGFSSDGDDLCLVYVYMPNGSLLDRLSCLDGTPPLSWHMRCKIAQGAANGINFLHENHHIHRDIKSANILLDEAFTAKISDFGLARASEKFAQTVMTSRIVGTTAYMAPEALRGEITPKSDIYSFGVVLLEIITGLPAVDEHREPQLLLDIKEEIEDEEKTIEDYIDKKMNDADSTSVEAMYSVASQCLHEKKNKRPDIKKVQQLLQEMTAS
T20 sequence (Q96Q40 whole entry): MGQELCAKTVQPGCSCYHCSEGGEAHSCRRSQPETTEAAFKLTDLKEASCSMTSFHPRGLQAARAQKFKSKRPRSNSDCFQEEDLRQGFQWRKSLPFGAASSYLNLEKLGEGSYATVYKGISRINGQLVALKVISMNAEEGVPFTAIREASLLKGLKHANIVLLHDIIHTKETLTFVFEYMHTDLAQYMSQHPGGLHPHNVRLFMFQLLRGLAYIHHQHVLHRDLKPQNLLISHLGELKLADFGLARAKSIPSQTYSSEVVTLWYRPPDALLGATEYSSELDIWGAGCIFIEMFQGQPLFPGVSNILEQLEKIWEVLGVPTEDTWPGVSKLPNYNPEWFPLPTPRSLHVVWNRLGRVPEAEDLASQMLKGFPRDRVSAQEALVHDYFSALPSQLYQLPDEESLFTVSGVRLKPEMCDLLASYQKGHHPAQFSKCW
T12 sequence (Q08881 whole entry): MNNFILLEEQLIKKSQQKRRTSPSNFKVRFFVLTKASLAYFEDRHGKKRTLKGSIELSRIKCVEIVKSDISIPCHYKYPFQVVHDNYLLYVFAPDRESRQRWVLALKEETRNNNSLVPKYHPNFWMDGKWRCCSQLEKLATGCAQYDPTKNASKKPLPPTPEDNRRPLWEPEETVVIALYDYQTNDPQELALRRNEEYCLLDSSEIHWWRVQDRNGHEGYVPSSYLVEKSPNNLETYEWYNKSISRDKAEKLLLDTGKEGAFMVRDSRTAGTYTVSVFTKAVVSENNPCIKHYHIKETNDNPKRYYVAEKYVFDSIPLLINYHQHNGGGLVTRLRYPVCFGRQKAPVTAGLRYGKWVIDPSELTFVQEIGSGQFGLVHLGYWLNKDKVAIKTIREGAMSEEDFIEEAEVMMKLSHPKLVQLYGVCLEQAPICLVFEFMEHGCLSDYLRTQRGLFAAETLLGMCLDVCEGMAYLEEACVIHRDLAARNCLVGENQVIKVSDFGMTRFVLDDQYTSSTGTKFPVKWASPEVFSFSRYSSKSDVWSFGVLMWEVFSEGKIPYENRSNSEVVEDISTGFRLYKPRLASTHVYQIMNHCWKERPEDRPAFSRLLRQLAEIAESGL

Nc1ccc(N=Nc2ccccc2)c(N)n1 [phenazopyridine, 2,6-diamino-3-(phenylazo)pyridine]
kinase inhibition [1]: 85
kinase inhibition (CDC2L2): 84
kinase inhibition (CLK1): 91
kinase inhibition (CLK3): 99
kinase inhibition (EGFR(T790M)): 100
kinase inhibition (EPHB6): 67
kinase inhibition (ERK5): 95
remaining binding (% of control) (FLT3(N841I)): 46
kinase inhibition (ICK): 90
kinase inhibition (IRAK1): 100
kinase inhibition (IRAK4): 100
kinase inhibition (ITK): 97
kinase inhibition (LATS1): 87
kinase inhibition (MARK1): 95
kinase inhibition (MARK2): 100
kinase inhibition (MET(Y1235D)): 100
kinase inhibition (MYLK): 100
kinase inhibition (MYLK2): 91
kinase inhibition (PAK7): 100
kinase inhibition (PFTAIRE2): 96
kinase inhibition (PIK3CA(E545K)): 88
kinase inhibition [2]: 81
kinase inhibition (SRPK3): 94
kinase inhibition (TAOK3): 79
kinase inhibition (TIE2): 98
kinase inhibition (YANK2): 90
Kd (RIOK2): 1000 nM
